Measured values published in patent US20240382483A1, “HETEROCYCLIC EGFR INHIBITORS FOR USE IN THE TREATMENT OF CANCER” (Blueprint Medicines Corporation, priority 2021, published 2024).
Where two headings read alike, the source gives them in different places.

Assays:
EGFR (L858R T790M C797S) = molecular target: T1, EGFR (L858R T790M C797S) (Homo sapiens, UniProt P00533, C797S/L858R/T790M); experiment: Biochemical EGFR inhibition assay (Caliper mobility shift), EGFR LRTMCS; conditions: LRTMCS (PH) IC50 (nM) @ 1 mM ATP (Num), EGFR LRTMCS mutant
T1 construct: purchased SignalChem E10-122VG
T1 sequence (P00533 25-1210 T790M/C797S/L858R): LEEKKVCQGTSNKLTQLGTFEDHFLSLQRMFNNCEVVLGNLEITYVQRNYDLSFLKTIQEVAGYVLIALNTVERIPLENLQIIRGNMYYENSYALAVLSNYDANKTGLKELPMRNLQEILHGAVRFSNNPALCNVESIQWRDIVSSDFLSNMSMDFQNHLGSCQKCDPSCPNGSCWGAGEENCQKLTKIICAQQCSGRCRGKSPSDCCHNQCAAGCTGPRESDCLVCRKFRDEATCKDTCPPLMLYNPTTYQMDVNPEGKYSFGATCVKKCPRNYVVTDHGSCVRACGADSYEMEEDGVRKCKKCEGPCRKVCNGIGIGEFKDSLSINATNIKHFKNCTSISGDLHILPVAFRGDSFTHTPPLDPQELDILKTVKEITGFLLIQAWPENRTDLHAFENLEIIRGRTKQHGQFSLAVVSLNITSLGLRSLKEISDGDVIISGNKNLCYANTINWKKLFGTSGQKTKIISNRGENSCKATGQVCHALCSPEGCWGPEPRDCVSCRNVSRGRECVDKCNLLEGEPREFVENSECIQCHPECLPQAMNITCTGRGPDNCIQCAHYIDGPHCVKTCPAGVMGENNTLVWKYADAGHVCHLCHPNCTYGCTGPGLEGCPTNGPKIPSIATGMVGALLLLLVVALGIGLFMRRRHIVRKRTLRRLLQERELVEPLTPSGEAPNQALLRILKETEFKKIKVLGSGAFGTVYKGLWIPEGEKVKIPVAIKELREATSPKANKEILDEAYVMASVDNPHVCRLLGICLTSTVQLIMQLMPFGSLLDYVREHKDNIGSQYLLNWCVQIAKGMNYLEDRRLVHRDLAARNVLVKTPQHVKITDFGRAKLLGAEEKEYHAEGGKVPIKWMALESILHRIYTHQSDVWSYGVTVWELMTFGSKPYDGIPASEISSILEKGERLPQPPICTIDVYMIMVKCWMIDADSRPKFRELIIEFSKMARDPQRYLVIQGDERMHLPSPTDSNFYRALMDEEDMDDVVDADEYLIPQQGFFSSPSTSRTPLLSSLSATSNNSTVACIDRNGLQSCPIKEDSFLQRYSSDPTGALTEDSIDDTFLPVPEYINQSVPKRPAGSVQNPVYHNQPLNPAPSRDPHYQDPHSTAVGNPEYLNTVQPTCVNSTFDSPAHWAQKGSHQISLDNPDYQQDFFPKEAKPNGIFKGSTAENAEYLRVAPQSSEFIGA
Outline: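 Kinase reactions at 25 °C run to 10–20% peptide phosphorylation, stopped with 35 mM EDTA. Phosphorylated product and substrate separated electrophoretically by mobility shift. Apparent IC50 from percent activity versus log compound concentration.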

[1] = molecular target: T2, intracellular phosphorylation of EGFR in NCI-H1975 cell line that harbors the EGFR L858R T790M mutations (Homo sapiens, UniProt P00533, L858R/T790M); experiment: NCI-H1975 pEGFR AlphaLISA assay; assay type: cell-based; conditions: NCI-H1975 cells (EGFR L858R T790M), p-EGFR (Tyr1068), 4-5 hours incubation
T2 construct: NCI-H1975 cell line that harbors the EGFR L858R T790M mutations (ATCC, CRL-5908); host or cells: NCI-H1975
T2 sequence (P00533 25-1210 T790M/L858R): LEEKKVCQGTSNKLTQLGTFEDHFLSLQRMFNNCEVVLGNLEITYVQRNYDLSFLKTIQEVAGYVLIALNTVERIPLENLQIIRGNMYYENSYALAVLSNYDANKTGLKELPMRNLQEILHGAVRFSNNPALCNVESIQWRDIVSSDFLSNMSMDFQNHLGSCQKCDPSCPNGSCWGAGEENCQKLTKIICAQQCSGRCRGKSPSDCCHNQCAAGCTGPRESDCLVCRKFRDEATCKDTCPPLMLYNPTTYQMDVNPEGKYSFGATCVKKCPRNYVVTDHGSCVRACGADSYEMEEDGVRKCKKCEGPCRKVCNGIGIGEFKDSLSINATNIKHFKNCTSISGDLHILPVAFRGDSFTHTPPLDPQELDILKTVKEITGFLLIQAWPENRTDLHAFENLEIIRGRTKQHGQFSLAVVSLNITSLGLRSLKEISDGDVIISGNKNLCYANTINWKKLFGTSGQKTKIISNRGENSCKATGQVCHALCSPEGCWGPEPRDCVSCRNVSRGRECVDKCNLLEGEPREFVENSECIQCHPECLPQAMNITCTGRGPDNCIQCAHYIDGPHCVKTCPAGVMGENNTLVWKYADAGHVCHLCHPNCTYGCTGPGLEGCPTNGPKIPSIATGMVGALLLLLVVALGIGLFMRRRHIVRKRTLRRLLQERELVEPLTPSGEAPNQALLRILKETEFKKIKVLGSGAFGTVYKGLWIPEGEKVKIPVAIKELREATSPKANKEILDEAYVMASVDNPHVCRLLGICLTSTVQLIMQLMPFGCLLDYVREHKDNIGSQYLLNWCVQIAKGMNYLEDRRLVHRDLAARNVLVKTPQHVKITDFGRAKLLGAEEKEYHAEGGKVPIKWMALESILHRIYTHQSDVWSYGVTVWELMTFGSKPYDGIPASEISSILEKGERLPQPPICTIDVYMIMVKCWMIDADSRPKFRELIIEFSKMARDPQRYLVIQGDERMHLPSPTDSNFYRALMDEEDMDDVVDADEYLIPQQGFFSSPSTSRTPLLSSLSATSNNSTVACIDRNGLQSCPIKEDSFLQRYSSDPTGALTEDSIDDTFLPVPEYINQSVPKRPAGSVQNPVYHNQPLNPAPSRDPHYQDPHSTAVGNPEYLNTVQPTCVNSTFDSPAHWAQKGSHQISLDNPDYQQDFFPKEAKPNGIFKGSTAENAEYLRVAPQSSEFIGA
Description: On the next day, the test compounds and DMSO control were added into H1975 cell plate followed by incubation at 37C/5% CO2 for 4-5 hours. […] Then 5 μL of a donor bead mix was added to each well followed by overnight incubation at room temperature in dark. On the next day, the plate was read at a compatible plate reader to obtain pEGFR signal. Percent of pEGFR inhibition was plotted against log concentration of compounds to generate IC50 values.

[2] = read-out: Ext pEGFR H1975 GMean IC50 (nM) Protocol: @Pharmaron AlphaLISA (Num)

Compound	IC50 (EGFR (L858R T790M C797S)) [nM]	IC50 [1, 2] [nM]	IC50 ([1]; Ext pEGFR H1975 GMean IC50 (nM) Protocol: @Pharmaron AlphaLISA (Num)) [nM]
[2H]C([2H])([2H])O[C@@H]1CCN(c2nccc(Nc3cc4c(C(C)C)cnc(N5C[C@H](OCCO)[C@H]5C)c4cn3)n2)C[C@@H]1F [Example 140, 2-(((2R,3S)-1-(6-((2-((3S,4R)-3-fluoro-4-(methoxy-d3)piperidin-1-yl)pyrimidin-4-yl)amino)-4-isopropyl-2,7-naphthyridin-1-yl)-2-methylazetidin-3-yl)oxy)ethan-1-ol]	< 15	< 10	
CC(C)c1ncc(-c2ccn(C)n2)c2cnc(Nc3ccnc(N4CC[C@@H](O)[C@@](C)(F)C4)n3)cc12 [Example 11, (3S,4R)-3-fluoro-1-(4-((5-isopropyl-8-(1-methyl-1H-pyrazol-3-yl)-2,6-naphthyridin-3-yl)amino)pyrimidin-2-yl)-3-methylpiperidin-4-ol]	20 to 30	30 to 50	
CC(C)c1cnc(N2CC3(CCS3(=O)=O)C2)c2cnc(Nc3ccnc(N4CC[C@@](C)(O)[C@@H](F)C4)n3)cc12 (single isomer, unassigned) [Example 174, 6-(6-((2-((3S,4R)-3-fluoro-4-hydroxy-4-methylpiperidin-1-yl)pyrimidin-4-yl)amino)-4-isopropyl-2,7-naphthyridin-1-yl)-1-thia-6-azaspiro[3.3]heptane 1,1-dioxide or 6-(6-((2-((3R,4S)-3-fluoro-4-hydroxy-4-methylpiperidin-1-yl)pyrimidin-4-yl)amino)-4-isopropyl-2,7-naphthyridin-1-yl)-1-thia-6-azaspiro[3.3]heptane 1,1-dioxide]	20 to 30	> 50	
CCc1cnc(N2CC[C@@H]2C)c2cnc(Nc3ccnc(N4CC[C@@H](O)[C@@](C)(F)C4)n3)cc12 (single isomer, unassigned) [Example 181, (3S,4R)-1-(4-((5-ethyl-8-((S)-2-methylazetidin-1-yl)-2,7-naphthyridin-3-yl)amino)pyrimidin-2-yl)-3-fluoro-3-methylpiperidin-4-ol or (3S,4R)-1-(4-((5-ethyl-8-((R)-2-methylazetidin-1-yl)-2,7-naphthyridin-3-yl)amino)pyrimidin-2-yl)-3-fluoro-3-methylpiperidin-4-ol]	15 to 20	30 to 50	
CC(C)c1cnc(-c2nc[nH]n2)c2cnc(Nc3ccnc(N4CC[C@@H](O)[C@@](C)(F)C4)n3)cc12 [Example 25, (3S,4R)-3-fluoro-1-(4-((5-isopropyl-8-(1H-1,2,4-triazol-3-yl)-2,7-naphthyridin-3-yl)amino)pyrimidin-2-yl)-3-methylpiperidin-4-ol]	15 to 20	30 to 50	
Cc1nc(-c2ncc(C(C)C)c3cc(Nc4ccnc(N5CC[C@@H](O)[C@@](C)(F)C5)n4)ncc23)n[nH]1 [Example 24, (3S,4R)-3-fluoro-1-(4-((5-isopropyl-8-(5-methyl-1H-1,2,4-triazol-3-yl)-2,7-naphthyridin-3-yl)amino)pyrimidin-2-yl)-3-methylpiperidin-4-ol]	< 15	30 to 50	
COP(=O)(CC1CN(c2ncc(C(C)C)c3cc(Nc4ccnc(N5CC[C@@H](O)[C@@](C)(F)C5)n4)ncc23)C1)OC [Example 96, dimethyl ((1-(6-((2-((3S,4R)-3-fluoro-4-hydroxy-3-methylpiperidin-1-yl)pyrimidin-4-yl)amino)-4-isopropyl-2,7-naphthyridin-1-yl)azetidin-3-yl)methyl)phosphonate]	20 to 30		20 to 30
CC(C)c1cnc(N2C[C@H](O)[C@H]2C)c2cnc(Nc3ccnc(N4C[C@H](F)[C@H](O)[C@](C)(F)C4)n3)cc12 (single isomer, unassigned) [Example 134, (3R,4S,5S)-3,5-difluoro-1-(4-((8-((2R,3S)-3-hydroxy-2-methylazetidin-1-yl)-5-isopropyl-2,7-naphthyridin-3-yl)amino)pyrimidin-2-yl)-3-methylpiperidin-4-ol or (3S,4R,5R)-3,5-difluoro-1-(4-((8-((2R,3S)-3-hydroxy-2-methylazetidin-1-yl)-5-isopropyl-2,7-naphthyridin-3-yl)amino)pyrimidin-2-yl)-3-methylpiperidin-4-ol]	30 to 100	> 50	
CC(C)c1cnc(N2C[C@H](O)[C@H]2C)c2cnc(Nc3ccnc(N4C[C@@H](F)[C@@H](O)[C@@](C)(F)C4)n3)cc12 (single isomer, unassigned) [Example 133, (3S,4R,5R)-3,5-difluoro-1-(4-((8-((2R,3S)-3-hydroxy-2-methylazetidin-1-yl)-5-isopropyl-2,7-naphthyridin-3-yl)amino)pyrimidin-2-yl)-3-methylpiperidin-4-ol or (3R,4S,5S)-3,5-difluoro-1-(4-((8-((2R,3S)-3-hydroxy-2-methylazetidin-1-yl)-5-isopropyl-2,7-naphthyridin-3-yl)amino)pyrimidin-2-yl)-3-methylpiperidin-4-ol]	< 15	10 to 20	
CO[C@H]1CCN(c2nccc(Nc3cc4c(C(C)C)ccc(N5C[C@H](c6nnco6)[C@H]5C)c4cn3)n2)C[C@@H]1O (single isomer, unassigned) [Example 217]	15 to 20	< 10	
CC(C)c1cnc(N2CC[C@@H](S(C)(=O)=O)C2)c2cnc(Nc3ccnc(N4CC[C@@H](O)[C@@](C)(F)C4)n3)cc12 [Example 74, (3S,4R)-3-fluoro-1-(4-((5-isopropyl-8-((R)-3-(methylsulfonyl)pyrrolidin-1-yl)-2,7-naphthyridin-3-yl)amino)pyrimidin-2-yl)-3-methylpiperidin-4-ol]	< 15	< 10	
COC(=O)NCC1CN(c2ncc(C(C)C)c3cc(Nc4ccnc(N5CC[C@@H](O)[C@@](C)(F)C5)n4)ncc23)C1 [Example 84, methyl ((1-(6-((2-((3S,4R)-3-fluoro-4-hydroxy-3-methylpiperidin-1-yl)pyrimidin-4-yl)amino)-4-isopropyl-2,7-naphthyridin-1-yl)azetidin-3-yl)methyl)carbamate]	< 15	20 to 30	
CC(C)c1cnc(N2CC(O)C2)c2cnc(Nc3ccnc(N4CCC5(CCO5)CC4)n3)cc12 [Example 117, 1-(6-((2-(1-oxa-7-azaspiro[3.5]nonan-7-yl)pyrimidin-4-yl)amino)-4-isopropyl-2,7-naphthyridin-1-yl)azetidin-3-ol]	15 to 20	> 50	
CO[C@@H]1CCN(c2nccc(Nc3cc4c(C(C)C)ncc(N5C[C@H](O)[C@H]5C)c4cn3)n2)C[C@@H]1O (single isomer, unassigned) [Example 119, (3S,4R)-1-(4-((8-((2R,3S)-3-hydroxy-2-methylazetidin-1-yl)-5-isopropyl-2,6-naphthyridin-3-yl)amino)pyrimidin-2-yl)-4-methoxypiperidin-3-ol or (3R,4S)-1-(4-((8-((2R,3S)-3-hydroxy-2-methylazetidin-1-yl)-5-isopropyl-2,6-naphthyridin-3-yl)amino)pyrimidin-2-yl)-4-methoxypiperidin-3-ol]	20 to 30	> 50	
CC(C)c1cnc(N2CCC(F)(F)C2)c2cnc(Nc3ccnc(N4CC[C@@H](O)[C@@](C)(F)C4)n3)cc12 [Example 57, (3S,4R)-1-(4-((8-(3,3-difluoropyrrolidin-1-yl)-5-isopropyl-2,7-naphthyridin-3-yl)amino)pyrimidin-2-yl)-3-fluoro-3-methylpiperidin-4-ol]	< 15	20 to 30	
CO[C@@H]1CCN(c2nccc(Nc3cc4c(C(C)C)cnc(N5CC(O)C5)c4cn3)n2)C[C@@H]1F [Example 147, 1-(6-((2-((3S,4R)-3-fluoro-4-methoxypiperidin-1-yl)pyrimidin-4-yl)amino)-4-isopropyl-2,7-naphthyridin-1-yl)azetidin-3-ol]	< 15	20 to 30	
CC(C)c1cnc(N2C[C@@H](C(=O)N(C)C)[C@@H]2C)c2cnc(Nc3ccnc(N4CC[C@@H](O)[C@@](C)(F)C4)n3)cc12 (single isomer, unassigned) [Example 155, (2S,3R)-1-(6-((2-((3S,4R)-3-fluoro-4-hydroxy-3-methylpiperidin-1-yl)pyrimidin-4-yl)amino)-4-isopropyl-2,7-naphthyridin-1-yl)-N,N,2-trimethylazetidine-3-carboxamide or (2R,3S)-1-(6-((2-((3S,4R)-3-fluoro-4-hydroxy-3-methylpiperidin-1-yl)pyrimidin-4-yl)amino)-4-isopropyl-2,7-naphthyridin-1-yl)-N,N,2-trimethylazetidine-3-carboxamide]	< 15	< 10	
CC(C)c1cnc(N2CCC23COC3)c2cnc(Nc3ccnc(N4CC[C@@H](O)[C@@](C)(F)C4)n3)cc12 [Example 53, (3S,4R)-3-fluoro-1-(4-((5-isopropyl-8-(6-oxa-1-azaspiro[3.3]heptan-1-yl)-2,7-naphthyridin-3-yl)amino)pyrimidin-2-yl)-3-methylpiperidin-4-ol]	< 15	20 to 30	
